# Where two headings read alike, the source gives them in different places. Ends that are not written are not given here.
# How the values were obtained:
# [1] = parameters: method as in 2 sources, one per row (each row's own in cited_ref): ref 19 = [19]; doi:10.1016/j.procbio.2018.06.001; 19. Jin J. Ahn C. Je J. Puri Fi Cation and Characterization of Antioxidant Peptides from Enzymatically Hydrolyzed Ark Shell ( Scapharca subcrenata ) Process Biochem. 2018 72 170 176 10.1016/j.procbio. ||| ref 21 = [21]; PMID 26304349; doi:10.1016/j.foodchem.2015.07.015; 21. Zheng L. Zhao M. Xiao C. Zhao Q. Su G. Practical Problems When Using ABTS Assay to Assess the Radical-Scavenging Activity of Peptides: Importance of Controlling Reaction PH and Time Food Chem. 201; conditions: cited from earlier work; for ABTS antioxidant activity: ark shell (Scapharca subcrenata) peptides, values converted to the same units
# [2] = ark shell (Scapharca subcrenata) peptides, values converted to the same units; cited from earlier work
# Source text: In the ORAC assay, the values were 0.334 µmol TE/µmol of peptide for P1 and ...
# ACE = system: ACE; parameters: method as in 2 sources, one per row (each row's own in cited_ref): ref 27 = [27]; PMID 29533693; doi:10.1080/10408398.2018.1452182; 27. Yathisha U.G. Bhat I. Karunasagar I. Mamatha B.S. Antihypertensive Activity of Fish Protein Hydrolysates and Its Peptides Crit. Rev. Food Sci. Nutr. 2019 59 2363 2374 10.1080/10408398.2018.1452182 ||| ref 28 = [28]; PMID 31671730; doi:10.3390/md17110613; 28. Abachi S. Bazinet L. Beaulieu L. Antihypertensive and Angiotensin-i-Converting Enzyme (ACE)-Inhibitory Peptides from Fish as Potential Cardioprotective Compounds Mar. Drugs 2019 17 613 10.3390/md1; conditions: cited from earlier work
# α-glucosidase [3] = biological target: α-glucosidase (Saccharomyces cerevisiae, UniProt P53341); test: biochemical
# Experimental: The α-glucosidase inhibitory activity was evaluated through the following method, outlined by Vilas-Boas et al. [42]. The assay was performed in a 96-well microplate (Stansted) and incubated at 25 °C for 5 min, and the absorbance was monitored at 405 nm with a microplate reader (Synergy H1, BioTek Instruments, Winooski, VT, USA). A negative control was performed, with 50 μL of a buffer solution that replaced the peptides. […] Each sample and control analysis was triplicated. The inhibition of α-glucosidase was quantified as the concentration required to inhibit 50% of the enzymatic activity (IC50). The IC50 values were determined using non-linear modelling of the data obtained.
# α-glucosidase [4] = biological target: α-glucosidase; parameters: method as in PMID 34445765; conditions: peptides hydrolyzed from food sources; cited from earlier work
# Experimental: The peptides were tested for antidiabetic activity based on the capacity to inhibit 50% of […].
# [5] = peptides from fish protein hydrolysates
# Chain of α-glucosidase (Saccharomyces cerevisiae, UniProt P53341) (P53341 whole entry): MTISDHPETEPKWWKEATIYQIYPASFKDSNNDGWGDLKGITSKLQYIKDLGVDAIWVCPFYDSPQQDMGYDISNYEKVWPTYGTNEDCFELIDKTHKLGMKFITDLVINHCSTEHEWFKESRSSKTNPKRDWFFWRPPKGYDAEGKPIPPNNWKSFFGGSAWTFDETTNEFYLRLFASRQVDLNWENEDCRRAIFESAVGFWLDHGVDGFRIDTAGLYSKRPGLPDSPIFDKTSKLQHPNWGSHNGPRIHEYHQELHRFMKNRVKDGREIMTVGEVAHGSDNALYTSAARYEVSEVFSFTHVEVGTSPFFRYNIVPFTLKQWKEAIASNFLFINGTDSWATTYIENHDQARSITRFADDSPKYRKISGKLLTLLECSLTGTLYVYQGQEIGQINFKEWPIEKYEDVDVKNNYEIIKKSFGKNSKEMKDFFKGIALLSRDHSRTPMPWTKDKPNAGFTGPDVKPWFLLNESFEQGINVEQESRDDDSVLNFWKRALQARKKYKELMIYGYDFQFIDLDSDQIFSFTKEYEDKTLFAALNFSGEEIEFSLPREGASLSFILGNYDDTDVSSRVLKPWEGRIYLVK
molecule,measurement,setting,value
N[C@@H](Cc1ccc(O)cc1)C(=O)O [Tyr],ABTS radical scavenging value,[1]; pH 6.0,2.89 µmol TE/µmol
same,ABTS radical scavenging value,[1]; pH 8.0,6.55 µmol TE/µmol
HPLDSLCL [P2],ABTS antioxidant activity,[1],0.005 µmol TE/µmol of peptide
same,ORAC antioxidant activity,[2],0.239 µmol TE/µmol of peptide
HWTTQR [peptide from Syngnathus schlegeli protein hydrolysate],ACE inhibition IC50,ACE; [5],1440 µg/mL
IKPLNY,ACE inhibition IC50,ACE; synthesized peptide before/after fragmentation in digestion,32 µg/mL
MCLDSCLL [P1],ABTS antioxidant activity,[1],0.678 µmol Trolox equivalents (TE)/µmol of peptide
same,ORAC antioxidant activity,[2],0.334 µmol TE/µmol of peptide
PAPPPPPP [HdPPP],IC50,"α-glucosidase [3]; α-glucosidase IC50, 25 °C, 5 min, absorbance 405 nm, mean ± standard deviation, n = 3",2.21 mM
same,IC50,"α-glucosidase [3]; α-glucosidase IC50, same result in molar units",2.21 mM
RVPSLM,IC50,α-glucosidase [4],0.023 mM
TFPHGP [peptide from Syngnathus schlegeli protein hydrolysate],ACE inhibition IC50,ACE; [5],600 µg/mL
TPSPR,IC50,α-glucosidase [4],0.04 mM

# Source: paper PMC11857211, “Bioprospecting Bioactive Peptides in Halobatrachus didactylus Body Mucus: From In Silico Insights to Essential In Vitro Validation” (Marine Drugs, 2025)
